Values after ≈ are worked out from the molar mass of the structure shown.
Tested on: Escherichia coli ATCC 25922
Experiment: microbe, parasite or virus in culture
Assay type: cell-based
Conditions: ATCC25922, 37° C., 20 hours
Description: ATP (%) of the antibacterial activity was measured in the same manner as mentioned above, and the “minimum inhibitory concentration (MIC)” was measured as follows. MIC is the lowest concentration of an agent that may inhibit the growth of a bacterium. MIC is used as a parameter for the efficacy of an antibacterial agent, for the strength of bacterial sensitivity, or the like. The bacteria can grow (proliferate) when the concentration is not higher than MIC, and cannot grow when the concentration is higher than MIC. […] (CLSI), but, in this Example, its measurement was carried out by a broth microdilution method in accordance with “M100-S17/M7-A7” (Performance Standards for Antimicrobial Susceptibility Testing; Seventeenth Informational Supplement, Vol. 27 No. 1) published by CLSI on January, 2007. That is, sensitivity test of agents was carried out using a microtiter plate or test tubes. The bacteria were cultured in the liquid media for 4 to 6 hours, and thereafter absorbances at A600 were measured. Bacterial suspensions were diluted with Mueller-Hinton broth (MHB) according to McFarland #0.5. Each strain was added so as to attain about 10^5 CFU/ml (final concentration). Each peptide was prepared to an optional concentration, and the solutions were serially diluted from the concentration. The polypeptide at each concentration stage was added to a microplate or test tubes, and the bacterial suspension was added thereto. […] The plate was incubated at 37° C. for 20 hours, the lowest concentration where bacterial growth was inhibited was regarded as the minimum inhibitory concentration. With respect to each strain, Escherichia coli: ATCC 25922 (Escherichia coli ATCC 25922), Pseudomonas aeruginosa: ATCC 27853 (Pseudomonas aeruginosa ATCC 27853), Staphylococcus aureus: ATCC29213 (Staphylococcus aureus ATCC29213), Klebsiella pneumoniae: JCM 1662 (Klebsiella pneumoniae JCM 1662), enterobacteria (1): JCM 1232 (Enterobacter cloacae JCM 1232), enterobacteria (2): JCM 1235 (Enterobacter aerogenes JCM 1235), and Staphylococcus epidermidis: JCM 2414 (Staphylococcus epidermidis JCM 2414), were used. […] As the concentrations of the agents in ATP assay, the concentrations as described in the Tables were used.

## C[C@@H](O)[C@H]1C(=O)N2C(C(=O)O)=C(S[C@@H]3CN[C@H](C(=O)N(C)C)C3)[C@H](C)[C@H]12 [MEPM, meropenem, reference compound]
  MIC: 0.008 to 0.06 µg/mL (≈ 0.0209 to 0.156 µM)

## NC[C@H]1O[C@H](O[C@H]2[C@H](O)[C@@H](O[C@H]3O[C@H](CO)[C@@H](O)[C@H](N)[C@H]3O)[C@H](N)C[C@@H]2N)[C@H](N)C[C@@H]1O [TOB, tobramycin, reference compound]
  MIC: 0.25 to 1 µg/mL (≈ 0.535 to 2.14 µM)
